From patent US20240226076A1, “Inhibitors of Tryptases and Their Use in Treating Allergies” (The Board of Trustees of the Leland Stanford Junior …, priority 2021, published 2024)

Assays:
[1] = oral drug, phase III clinical trials for hereditary angioedema; cited from earlier work
Kallikrein-14 = molecular target: T1, Kallikrein-14 (Homo sapiens, UniProt Q9P0G3); assay: Protease activity array (Reaction Biology Corp), Kallikrein-14; type: biochemical; details: recombinant protease, 10-dose IC50, fluorescently labeled peptide substrate
T1 construct: purchased Reaction Biology Corp
T1 sequence (Q9P0G3 25-251): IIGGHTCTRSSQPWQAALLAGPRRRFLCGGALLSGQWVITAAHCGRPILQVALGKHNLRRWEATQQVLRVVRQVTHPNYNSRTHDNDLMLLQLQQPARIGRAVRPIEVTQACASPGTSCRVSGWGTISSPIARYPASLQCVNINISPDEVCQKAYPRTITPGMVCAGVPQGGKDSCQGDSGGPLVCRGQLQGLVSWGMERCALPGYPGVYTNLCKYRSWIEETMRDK
Procedure: (§1) Avoralstat can inhibit Tryptase-b2 and -g1 as well as it inhibits KLKB1 in vitro. Avoralstat was assessed for inhibition against a panel of recombinant proteases including 2 Tryptases (Tryptase-b2 and -g1) and KLKB1 by commercial services from Reaction Biology Corp. The Reaction Biology Corp profile tested in a 10-dose IC50, with a dose range from 38 pM to 10 μM, against 70 proteases in FIG. 1E.
(§2) Protease activity array. […] The protease activities were monitored as a time-course measurement of the increase in fluorescence signal from fluorescently labeled peptide substrate, and initial linear portion of slope (signal/min) was analyzed.

KLKB1 = molecular target: T2, KLKB1 (Homo sapiens, UniProt P03952); assay: Protease activity array (Reaction Biology Corp), KLKB1; type: biochemical
T2 construct: purchased Reaction Biology Corp
Procedure: as §1, §2

Tryptase-b2 = molecular target: T3, Tryptase-b2 (Homo sapiens, UniProt P20231); assay: Protease activity array (Reaction Biology Corp), Tryptase-b2; type: biochemical
T3 construct: purchased Reaction Biology Corp
Procedure: as §1, §2

Kallikrein-12 = molecular target: T4, Kallikrein-12 (Homo sapiens, UniProt Q9UKR0); assay: Protease activity array (Reaction Biology Corp), Kallikrein-12; type: biochemical; details: recombinant protease, 10-dose IC50, fluorescently labeled peptide substrate
T4 construct: purchased Reaction Biology Corp
T4 sequence (Q9UKR0 18-248): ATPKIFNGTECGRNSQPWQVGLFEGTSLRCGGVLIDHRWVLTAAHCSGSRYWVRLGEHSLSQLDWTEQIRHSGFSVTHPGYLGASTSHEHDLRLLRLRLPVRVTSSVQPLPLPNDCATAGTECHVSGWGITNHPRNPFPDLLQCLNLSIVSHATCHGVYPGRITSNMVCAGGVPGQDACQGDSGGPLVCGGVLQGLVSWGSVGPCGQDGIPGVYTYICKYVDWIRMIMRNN
Procedure: as §1, §2

Tryptase-g1 = molecular target: T5, Tryptase-g1 (Homo sapiens, UniProt Q9NRR2); assay: Protease activity array (Reaction Biology Corp), Tryptase-g1; type: biochemical
T5 construct: purchased Reaction Biology Corp
Procedure: as §1, §2

T2 sequence (P03952 20-638): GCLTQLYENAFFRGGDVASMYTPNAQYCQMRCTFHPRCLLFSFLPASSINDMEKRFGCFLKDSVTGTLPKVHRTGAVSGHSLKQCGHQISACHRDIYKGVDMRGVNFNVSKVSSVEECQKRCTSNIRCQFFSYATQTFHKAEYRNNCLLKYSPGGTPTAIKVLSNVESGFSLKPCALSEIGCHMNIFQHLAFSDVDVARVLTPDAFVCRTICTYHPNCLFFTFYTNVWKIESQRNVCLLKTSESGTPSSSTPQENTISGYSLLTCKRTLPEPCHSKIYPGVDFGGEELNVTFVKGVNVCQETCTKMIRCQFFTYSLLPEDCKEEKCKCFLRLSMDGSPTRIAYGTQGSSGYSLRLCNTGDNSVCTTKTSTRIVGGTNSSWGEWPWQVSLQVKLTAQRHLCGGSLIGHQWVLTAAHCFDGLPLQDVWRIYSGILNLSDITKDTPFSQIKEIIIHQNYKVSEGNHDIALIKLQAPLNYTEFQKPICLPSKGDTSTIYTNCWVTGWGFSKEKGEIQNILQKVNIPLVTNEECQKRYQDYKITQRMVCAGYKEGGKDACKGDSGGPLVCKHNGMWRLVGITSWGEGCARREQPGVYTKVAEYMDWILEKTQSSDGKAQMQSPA
T5 sequence (Q9NRR2 20-321): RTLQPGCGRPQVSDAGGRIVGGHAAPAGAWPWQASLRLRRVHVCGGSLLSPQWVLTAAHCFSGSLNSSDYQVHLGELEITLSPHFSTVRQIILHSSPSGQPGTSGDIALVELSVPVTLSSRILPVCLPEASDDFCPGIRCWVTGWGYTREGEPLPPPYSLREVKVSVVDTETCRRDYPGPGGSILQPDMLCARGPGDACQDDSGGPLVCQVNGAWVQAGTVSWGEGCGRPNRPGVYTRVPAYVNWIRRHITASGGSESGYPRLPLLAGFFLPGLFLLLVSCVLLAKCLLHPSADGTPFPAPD
T3 sequence (P20231 31-275): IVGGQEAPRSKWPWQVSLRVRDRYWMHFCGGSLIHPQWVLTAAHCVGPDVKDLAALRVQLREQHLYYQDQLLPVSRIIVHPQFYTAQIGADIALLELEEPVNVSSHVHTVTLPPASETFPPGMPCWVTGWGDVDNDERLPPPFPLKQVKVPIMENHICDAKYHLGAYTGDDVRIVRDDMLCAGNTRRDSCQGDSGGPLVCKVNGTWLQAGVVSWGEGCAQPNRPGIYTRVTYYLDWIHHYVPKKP

C=Cc1cc(C(=O)Nc2ccc(C(=N)N)cc2)c(-c2ccc(C(=O)NCC3CC3)nc2C(=O)O)cc1OC [Avoralstat]
clinical safety [1]: clinically proven to be safe | inhibition (Kallikrein-14): sub-nanomolar inhibition | IC50 (KLKB1): 130 pM | IC50 (Tryptase-b2): 990 pM | inhibition (Kallikrein-12): sub-nanomolar inhibition | IC50 (Tryptase-g1): 930 pM
